Experimental data published in US7273614B2 (priority 1993, dated 2007).
Entries after “also recorded” stand apart in the source; their conditions may differ. Like-named read-outs stand apart in the source and are kept apart here. Peptide text beside a SMILES is read from it.

How the values were obtained:
HIV-1LAI [1] = conditions: Wild et al. 1992; cited from earlier work
HIV-1LAI [2] = experiment: Cell free virus infection assay (CEM CD4+ cells, reverse transcriptase readout); type: cell-based; conditions: FIG. 1 legend
Method: (§1) Synthetic peptides were incubated at 37° C. with either 247 TCID50 (for experiment depicted in FIG. 2), or 62 TCID50 (for experiment depicted in FIG. 3) units of HIV-1LAI virus or 25 TCID50 units of HIV-2NIHZ and CEM CD4+ cells at peptide concentrations of 0, 0.04, 0.4, 4.0, and 40 μg/ml for 7 days. The resulting reverse transcriptase (RT) activity in counts per minute was determined using the assay described, below, in Section 6.1.5. See, Reed, L. J. et al., 1938, Am. J. Hyg. 27: 493-497 for an explanation of TCID50 calculations.
(§2) The micro-reverse transcriptase (RT) assay was adapted from Goff et al. (Goff, S. et al., 1981, J. Virol. 38:239-248) and Willey et al. (Willey, R. et al., 1988, J. Virol. 62:139-147). Supernatants from virus/cell cultures are adjusted to 1% Triton-X100. A 10 μl sample of supernatant was added to 50 μl of RT cocktail in a 96-well U-bottom microtitre plate and the samples incubated at 37° C. for 90 min. The RT cocktail contained 75 mM KCl, 2 mM dithiothreitol, 5 mM MgCl2, 5 μg/ml poly A (Pharmacia, cat. No. 27-4110-01), 0.25 units/ml oligo dT (Pharmacia, cat. No. 27-7858-01), 0.05% NP40, 50 mM Tris-HCl, pH 7.8, 0.5 μM non-radioactive dTTP, and 10 μCi/ml ^32P-dTTP (Amersham, cat. No. PB.10167). […]

[3] = molecular target: viral gp41 of HIV-1 (HIV-1IIIB) (HIV-1 IIIB) (UniProt P03377); experiment: cell-based or functional assay
Fab-d = experiment: ELISA analysis of DP178 binding to the leucine zipper motif of gp41 (Fab-d ELISA); design: species or system human; conditions: FIG. 10
Method: Each well was washed three times with distilled water then blocked with 3% bovine serum albumin (BSA) for 2 hours. After blocking, peptides with 0.5% BSA in TBST (40 mM Tris-HCl pH7.5, 150 mM NaCl, 0.05% Tween 20) were added to the ELISA plates and incubated at room temperature for 1 hour. After washing three times with TBST, Fab-d was added at a concentration of 10 ng/ml with 0.5% BSA in TBST. The plates were washed three times with TBST after incubation at room temperature for 1 hour. Horse radish peroxidase (HRP) conjugated goat antihuman Fab antiserum at a 2000 fold dilution in TBST with 0.5% BSA was added to each well and incubated at room temperature for 45 minutes. The plates were then washed four times with TBST. The peroxidase substrate o-phenylene diamine (2.5 mg/ml) and 0.15% H2O2 were added to develop the color. The reaction was stopped with an equal volume of 4.5 N H2SO4 after incubation at room temperature for 10 minutes. The optical density of the stopped reaction mixture was measured with a micro plate reader (Molecular Design) at 490 nm.

HIV-2 = experiment: Cell fusion assay: HIV-2 mediated syncytia formation; type: cell-based; conditions: failed to block at highest concentration; FIG. 5
Method: Approximately 7×10^4 Molt cells were incubated with 1×10^4 CEM cells chronically infected with the HIV-1LAI virus in 96-well plates (one-half area cluster plates; Costar, Cambridge, Mass.) in a final volume of 100 μl culture medium as previously described (Matthews, T. J. et al., 1987, Proc. Natl. Acad. Sci. USA 84: 5424-5428). Peptide inhibitors were added in a volume of 10 μl and the cell mixtures were incubated for 24 hr. at 37° C. At that time, multinucleated giant cells were estimated by microscopic examination at a 40× magnification which allowed visualization of the entire well in a single field.

HIV-2NIHZ = experiment: Cell free virus infection assay (CEM CD4+ cells, reverse transcriptase readout); type: cell-based
Method: as §1, §2

HIV-1IIIB = type: cell-based; conditions: 10 nM peptide
Method: CEM cells (7×10^4) were incubated with HIV-1IIIB chronically infected CEM cells (10^4) in 96-well flat-bottomed half-area plates (Costar) in 100 μl culture medium. Peptide and fusion proteins at various concentrations in 10 μl culture medium were incubated with the cell mixtures at 37° C. for 24 hours. Multinucleated syncytia were estimated with microscopic examination.

HIV-1/IIIb = experiment: Anti-HIV assays of DP107 and DP178 truncations and mutations; type: cell-based; conditions: FIGS. 49, 50
From the text: Anti-HIV assays: The antiviral assays performed were as those described, above, in Section 6.1. Assays utilized HIV-1/IIIb and/or HIV-2 NIHZ isolates. Purified peptides were used, unless otherwise noted in FIGS. 49A-L.

CEM cells = experiment: Cell proliferation and toxicity assay; type: cell-based
Method: Cell proliferation and toxicity assay: Approximately 3.8×10^5 CEM cells for each peptide concentration were incubated for 3 days at 37° C. in T25 flasks. Peptides tested were DP178 (SEQ ID:1) and DP-116 (SEQ ID:9), as described in FIG. 1. Peptides were synthesized as described, above, in Section 6.1. The concentrations of each peptide used were 0, 2.5, 10, and 40 μg/ml. Cell counts were taken at incubation times of 0, 24, 48, and 72 hours.

## CC[C@H](C)[C@H](NC(=O)[C@H](CCCNC(=N)N)NC(=O)[C@H](C)NC(=O)[C@H](CCC(N)=O)NC(=O)[C@H](CC(C)C)NC(C)=O)C(=O)N[C@@H](CC(C)C)C(=O)N[C@@H](C)C(=O)N[C@H](C(=O)N[C@@H](CCC(=O)O)C(=O)N[C@@H](CCCNC(=N)N)C(=O)N[C@@H](Cc1ccc(O)cc1)C(=O)N[C@@H](CC(C)C)C(=O)N[C@@H](CCCCN)C(=O)N[C@@H](CC(=O)O)C(=O)N[C@@H](CCC(N)=O)C(=O)N[C@@H](CCC(N)=O)C(=O)N[C@@H](CCC(N)=O)C(N)=O)C(C)C [DP-116] (Ac-LQARILAVERYLKDQQQ-NH2)
HIV-1LAI [1]
  activity in cell-free HIV-1 infection assay, previously shown (in words): inactive; also recorded: ineffective as a HIV inhibitor
HIV-1LAI [2]
  inhibition of HIV-1 cell free virus infection (in words): negative for inhibition of HIV-1 infection

## DP107 (SEQ ID NO: 89), synthetic peptide corresponding to amino acids 558 to 595 of HIV-1LAI gp41
[3]
  Cell fusion (IC90): 1 µM
  HIV infectivity (IC90): 1 µM

## DP178 (SEQ ID NO:1), synthetic peptide corresponding to amino acids 638 to 673 of HIV-1LAI gp41
[3]
  Cell fusion (IC90): 0.001 µM
  HIV infectivity (IC90): 0.08 µM

## Enfuvirtide
Fab-d
  Fab-d binding (in words): failed to bind
HIV-2
  peptide concentration blocking HIV-2 mediated syncytia formation: > 10 µg/mL
HIV-1; HIV-1LAI, FIG. 4
  concentration affording complete protection against syncytia formation (lowest concentration tested): ≤ 12.5 ng/mL
HIV-1; HIV-1MN, HIV-1RF, HIV-1SF2, FIG. 4
  concentration affording complete protection against syncytia formation (lowest concentration tested): ≤ 100 ng/mL
HIV-1; HIV-1 mediated cell-cell fusion
  concentration completely blocking virus induced syncytia formation (lowest effective inhibitory concentration): 1 to 10 ng/mL
HIV-1; HIV-1 vs HIV-2
  selectivity as inhibitor of HIV-1-mediated over HIV-2-mediated cell fusion: 4 log
HIV-1; HIV-1 vs HIV-2 comparison, FIG. 5
  peptide concentration blocking HIV-1-mediated syncytia formation: below 1 ng/ml
HIV-2NIHZ; 25 TCID50 HIV-2NIHZ, CEM cells, 7 days, FIG. 3
  IC50 for HIV-2NIHZ (in words): much higher IC50
HIV-2NIHZ; HIV-1LAI vs HIV-2NIHZ cell-free infection
  potency as HIV-1 inhibitor relative to HIV-2 inhibitor: two logs more potent
HIV-1IIIB
  syncytia in the presence of peptide (in words): no observable syncytia

## H-YTNTIYTLLEESQNQQEKNEQELLELDKWASLWNWF-OH [DP-185]
HIV-1
  HIV-1-mediated syncytia formation (in words): block HIV-1-mediated syncytia formation
HIV-1; lowest concentration tested, FIG. 4
  concentration with inhibitory activity on HIV-1-induced syncytia formation: ≤ 312.5 ng/mL

## M41, maltose binding protein fusion with the extracellular domain of gp41 (540-686) (from UniProt P03377 540-686)
[3]
  Cell fusion (IC90): > 50 µM
  HIV infectivity (IC90): > 16 µM

## T-235: SEQ ID NO. 162; DP178 truncation/mutation peptide (RMKQLEDKVEELLSKLELDKWASLWNWF)
HIV-1/IIIb
  anti-HIV antiviral activity (in words): high level of antiviral activity

## T-377: SEQ ID NO. 167; DP178 truncation/mutation peptide (CLELDKWASLANWFC)
HIV-1/IIIb
  anti-HIV antiviral activity (in words): high level of antiviral activity

## T-378: SEQ ID NO. 168; DP178 truncation/mutation peptide (CLELDKWASLWNFFC)
HIV-1/IIIb
  anti-HIV antiviral activity (in words): high level of antiviral activity

## T-381: SEQ ID NO. 164; DP178 truncation/mutation peptide (RMKQLEDKVEELLSKNYHLENELELDKWASLWNWF)
HIV-1/IIIb
  anti-HIV antiviral activity (in words): high level of antiviral activity

## T-590: SEQ ID NO. 167; DP178 truncation/mutation peptide (CLELDKWASLANWFC)
HIV-1/IIIb
  anti-HIV antiviral activity (in words): high level of antiviral activity

## T-591: SEQ ID NO. 168; DP178 truncation/mutation peptide (CLELDKWASLWNFFC)
HIV-1/IIIb
  anti-HIV antiviral activity (in words): high level of antiviral activity

## T-611: SEQ ID NO. 175; DP178 truncation/mutation peptide (LKLDKWASLWNWF)
HIV-1/IIIb
  anti-HIV antiviral activity (in words): high level of antiviral activity

## T-677: SEQ ID NO. 165; DP178 truncation/mutation peptide (FWNWLSAWKDLELYPGSLELDKWASLWNWF)
HIV-1/IIIb
  anti-HIV antiviral activity (in words): high level of antiviral activity

## enfuvirtide
CEM cells; 40 μg/ml vs HIV inhibitory dose
  non-cytotoxic concentration relative to HIV inhibitory dose: greater than 3 log
CEM cells; up to highest peptide concentration tested, 40 μg/ml, CEM cells, 3 days
  cytotoxic effects on cells in culture (in words): not toxic to cells; also recorded: non-cytotoxic; also recorded: no cytotoxic effects
